Source: PMC12736194, “1-Azinyl-1′-Alkenylferrocenes with Anticholinesterase, Antioxidant, and Antiaggregating Activities as Multifunctional Agents for Potential Treatment of Alzheimer’s Disease” (Pharmaceuticals, 2025)

Tests used:
[1] = target: T1, human (Homo sapiens) erythrocyte AChE (HsAChE) (Homo sapiens, UniProt P22303); experiment: Inhibition of HsAChE (spectrophotometric, ATCh iodide substrate); format: biochemical; conditions: compound 20 μM; n.a. = not active; mean ± SEM, n = 3
T1 construct: human (Homo sapiens) erythrocyte AChE (HsAChE); purchased Sigma-Aldrich; host or cells: human erythrocytes
Description: (§1) In these experiments, human (Homo sapiens) erythrocyte AChE (HsAChE), equine (Equus caballus) serum BChE (EcBChE), and porcine (Sus scrofa) liver CES (SsCES) were used because of their ready availability, relatively low cost, and high sequence homology of EcBChE and SsCES to the corresponding human enzymes.
(§2) Enzymes, substrates, and reference compounds were sourced from Sigma-Aldrich (St. Louis, MO, USA). Enzyme activity was measured spectrophotometrically according to [91] using ATCh iodide, BTCh iodide, and 4-NPA as substrates for HsAChE, EcBChE, and SsCES, respectively. Experimental conditions included a K/Na-phosphate buffer (100 mM), at 25 °C, with pH 7.5 for AChE and BChE assays, and pH 8.0 for CES assays. Measurements were conducted on a BioRad Benchmark Plus microplate spectrophotometer (Hercules, CA, USA). Test compounds were dissolved in DMSO with a final solvent concentration of 2% (v/v) in the incubation mixture.

[2] = target: T2, equine (Equus caballus) serum BChE (EcBChE) (Equus caballus, UniProt P81908); experiment: Inhibition of EcBChE (spectrophotometric, BTCh iodide substrate); format: biochemical; conditions: compound 20 μM; n.a. = not active; mean ± SEM, n = 3
T2 construct: equine (Equus caballus) serum BChE (EcBChE); purchased Sigma-Aldrich; host or cells: horse serum
Description: as §1, §2

[3] = tested on: porcine (Sus scrofa) liver CES (SsCES); experiment: Inhibition of SsCES (spectrophotometric, 4-NPA substrate); format: biochemical; conditions: compound 20 μM; n.a. = not active; mean ± SEM, n = 3
Source text: as §1
Although the dominant carboxylesterase in porcine liver is CES1 [64], the preparation sourced from Sigma-Aldrich is not a purified or recombinant CES1. Therefore, we have designated the preparation used in our experimental studies as SsCES. However, in computational molecular docking studies, it is necessary to choose a single defined protein as the docking target. Thus, the logical choice for our computational studies of CES was the most abundant and best characterized isoform found in porcine liver, which is SsCES1.
as §2

[4] = target: T3, peripheral anionic site (PAS) of Electrophorus electricus AChE (EeAChE) (Electrophorus electricus, UniProt O42275); experiment: Propidium displacement from the EeAChE PAS (fluorescence); format: binding; conditions: compound concentration 20 µM; EeAChE 7 μM, propidium iodide 8 μM, Tris-HCl pH 8.0; n.a. = not active
T3 construct: purchased Sigma-Aldrich type VI-S
Description: A fluorescence-based assay assessed the ability of test compounds to competitively displace propidium iodide from AChE’s PAS [65, 93]. […] EeAChE (7 μM) was incubated with 20 μM test compounds in Tris-HCl buffer (pH 8.0) for 15 min, followed by addition of propidium iodide (8 μM) as described in detail in [95]. Fluorescence readings (530 nm excitation, 600 nm emission) were obtained using a FLUOStar Optima microplate reader (LabTech, Ortenberg, Germany). Displacement (%) was calculated.

[5] = target: T4, human β-amyloid (1–42) (HsAβ42) (Homo sapiens, UniProt P05067); experiment: Inhibition of HsAβ42 self-aggregation (thioflavin T fluorescence); format: biochemical; conditions: HsAβ42 50 µM, compound 100 µM, 24 h, 37 °C; n.a. = not active
T4 construct: purchased AnaSpec Inc
Description: The potential of compounds from all three groups (1a-e, 5a-e, 7a-d) to inhibit HsAβ42 self-aggregation was evaluated using a Thioflavin T (ThT) fluorescence assay.
Inhibition of HsAβ42 self-aggregation by test compounds was studied using the thioflavin T (ThT) fluorescence method with minor modifications as described in detail in [79]. Lyophilized HFIP-pretreated HsAβ42 (AnaSpec Inc., Fremont, CA, USA, 0.5 mg) was dissolved in DMSO to obtain a stable 500 μM solution. The samples of 50 μM HsAβ42 in 215 mM Na-phosphate buffer pH 8.0 were incubated for 24 h at 37 °C in the absence or presence of 100 μM test compounds. Myricetin in the same concentration was used as a reference. After incubation, 5 μM ThT in 50 mM glycine-NaOH buffer pH 8.5 was added, and the fluorescence was measured at 440 nm (exc.) and 485 nm (emis.) with a FLUOStar Optima microplate reader. Blanks consisted of 215 mM Na-phosphate buffer, pH 8.0, 20% (v/v) DMSO or test compounds, respectively. The inhibition (%) of HsAβ42 self-aggregation by the test compounds was calculated.

[6] = ABTS radical cation scavenging activity assay;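 for Exp. ABTS, TEAC: same experimental ABTS TEAC values reprinted in Table 4 beside calculated BDE and IP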; conditions: for IC50: ABTS^•+ 100 μM; for IC50 / ABTS^•+-Scavenging Activity, TEAC: ethanol, 1 h; for Exp. ABTS, TEAC: Ethanol, Table 4; for ABTS^•+-Scavenging Activity, TEAC: Trolox equivalent antioxidant capacity, mean ± SEM, n = 3
[7] = Ferric reducing antioxidant power (FRAP) assay;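 for Exp. FRAP, TE: same experimental FRAP TE values reprinted in Table 4 beside calculated BDE and IP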; conditions: for Ferric Reducing Antioxidant Power, TE: Trolox equivalents, acetate buffer pH 3.6, 1 h, 37 °C; for Exp. FRAP, TE: Water, Table 4

T1 sequence (P22303 32-617 isoform P22303-2 limits assumed): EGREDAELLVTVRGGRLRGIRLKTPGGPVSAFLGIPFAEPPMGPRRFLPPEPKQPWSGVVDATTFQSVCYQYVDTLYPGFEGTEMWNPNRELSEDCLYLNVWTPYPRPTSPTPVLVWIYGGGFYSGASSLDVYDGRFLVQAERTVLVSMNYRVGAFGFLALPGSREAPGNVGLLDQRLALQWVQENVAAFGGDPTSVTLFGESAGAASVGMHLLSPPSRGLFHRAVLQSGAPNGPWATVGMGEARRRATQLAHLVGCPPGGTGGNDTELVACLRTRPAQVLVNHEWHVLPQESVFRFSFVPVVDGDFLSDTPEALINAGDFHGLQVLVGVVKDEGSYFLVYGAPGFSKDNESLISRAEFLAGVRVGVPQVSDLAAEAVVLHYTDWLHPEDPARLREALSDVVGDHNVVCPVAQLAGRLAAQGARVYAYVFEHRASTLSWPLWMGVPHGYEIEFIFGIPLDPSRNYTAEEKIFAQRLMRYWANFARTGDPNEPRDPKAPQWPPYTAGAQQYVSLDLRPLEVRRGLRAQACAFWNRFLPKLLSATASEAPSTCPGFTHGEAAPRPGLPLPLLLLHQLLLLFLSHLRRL
T2 sequence (P81908 whole entry): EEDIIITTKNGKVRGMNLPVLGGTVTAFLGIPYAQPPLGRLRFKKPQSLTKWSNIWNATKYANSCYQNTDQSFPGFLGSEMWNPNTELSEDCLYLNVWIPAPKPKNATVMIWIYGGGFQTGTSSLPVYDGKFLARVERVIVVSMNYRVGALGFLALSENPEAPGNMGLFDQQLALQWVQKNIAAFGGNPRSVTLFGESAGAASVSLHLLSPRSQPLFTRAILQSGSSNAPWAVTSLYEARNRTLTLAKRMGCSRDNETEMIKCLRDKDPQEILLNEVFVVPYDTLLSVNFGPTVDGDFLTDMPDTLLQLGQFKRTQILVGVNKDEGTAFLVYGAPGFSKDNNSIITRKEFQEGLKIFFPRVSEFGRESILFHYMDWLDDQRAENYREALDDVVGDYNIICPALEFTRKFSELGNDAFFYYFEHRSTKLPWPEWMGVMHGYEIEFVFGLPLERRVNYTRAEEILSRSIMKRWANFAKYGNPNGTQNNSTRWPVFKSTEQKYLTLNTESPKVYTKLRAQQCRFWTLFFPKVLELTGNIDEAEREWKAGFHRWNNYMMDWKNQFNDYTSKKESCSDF
T4 sequence (P05067 672-713 limits assumed): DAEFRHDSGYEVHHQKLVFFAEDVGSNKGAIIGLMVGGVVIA
T3 sequence (O42275 24-633): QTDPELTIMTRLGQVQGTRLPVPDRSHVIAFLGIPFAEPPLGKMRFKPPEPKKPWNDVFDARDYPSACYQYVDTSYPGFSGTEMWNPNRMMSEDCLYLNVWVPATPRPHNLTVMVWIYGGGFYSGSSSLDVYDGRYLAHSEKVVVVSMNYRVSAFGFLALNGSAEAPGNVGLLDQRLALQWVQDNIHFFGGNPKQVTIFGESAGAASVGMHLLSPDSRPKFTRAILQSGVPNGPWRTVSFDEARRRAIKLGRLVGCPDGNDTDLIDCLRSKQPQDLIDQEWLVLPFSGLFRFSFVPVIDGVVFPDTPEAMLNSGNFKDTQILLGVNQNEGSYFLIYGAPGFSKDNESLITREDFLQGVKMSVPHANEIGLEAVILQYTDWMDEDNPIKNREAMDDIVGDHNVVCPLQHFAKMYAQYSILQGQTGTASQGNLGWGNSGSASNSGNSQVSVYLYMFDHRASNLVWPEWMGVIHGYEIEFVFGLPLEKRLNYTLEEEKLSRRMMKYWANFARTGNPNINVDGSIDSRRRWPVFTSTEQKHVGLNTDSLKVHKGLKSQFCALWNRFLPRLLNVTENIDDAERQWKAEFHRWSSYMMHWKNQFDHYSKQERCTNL

Row | SMILES | Inhibition of HsAChE, % inhibition at 20 μM [1] | Inhibition of EcBChE, % inhibition at 20 μM [2] | Inhibition of SsCES, % inhibition at 20 μM [3] | Propidium Displacement, (%) [4] | HsAβ42 self-Aggregation Inhibition, (%) [5] | IC50 [6] | Exp. ABTS, TEAC [6] | ABTS^•+-Scavenging Activity, TEAC [6] | Ferric Reducing Antioxidant Power, TE [7] | Exp. FRAP, TE [7]
1 | [Fe+2].c1cc[cH-]c1.c1cc[cH-]c1 [Fc, ferrocene] | 9.6 ± 1.4% | 6.7 ± 1.0% | 4.2 ± 0.7% | zero | 3.5 ± 0.4% | 32.9 ± 1.9 µM | 0.57 ± 0.03 | 0.57 ± 0.03 | 0.79 ± 0.02 | 0.79 ± 0.02
2 | Cc1c(C)c2c(c(C)c1O)CCC(C)(C(=O)O)O2 (stereo not drawn) [Trolox, reference compound] |  |  |  |  |  | 20.1 ± 1.2 µM |  | 1.0 | 1.0 | 
3 | C=C[c-]1cccc1.[Fe+2].c1ccc2c(-[c-]3cccc3)c3ccccc3[nH+]c2c1 [7cp] |  |  |  |  |  |  |  |  |  | 1.36 ± 0.01
4 | C=C(C)[c-]1cccc1.[Fe+2].c1cc[cH-]c1 [compound 8, isopropenylferrocene, reference compound] |  | 3.9 ± 0.8% | 2.9 ± 0.6% | zero |  | 26.3 ± 1.5 µM | 0.73 ± 0.04 | 0.73 ± 0.04 | 1.1 ± 0.1 | 1.10 ± 0.10
5 | C=C[c-]1cccc1.[Fe+2].c1cc[cH-]c1 [compound 9, vinylferrocene, reference compound] | 4.2 ± 0.9% |  | 23.4 ± 2.1% | zero | 44.9 ± 3.1% | 19.4 ± 0.1 µM | 1.00 ± 0.04 | 1.00 ± 0.04 | 1.04 ± 0.02 | 1.04 ± 0.02
6 | [Fe+2].c1cc[cH-]c1.c1ccc2[nH+]c(-[c-]3cccc3)ccc2c1 [1bp] |  |  |  |  |  |  | 4.20 ± 0.20 |  |  | 2.21 ± 0.01
7 | [Fe+2].c1cc[cH-]c1.c1ccc2c(-[c-]3cccc3)c3ccccc3nc2c1 [1c] | 6.5 ± 0.8% | 21.2 ± 1.6% |  | 11.2 ± 0.9% | 71.0 ± 4.9% | 14.6 ± 0.3 µM |  | 1.50 ± 0.08 | 1.59 ± 0.17 | 
8 | C=C[c-]1cccc1.[Fe+2].c1ccc2c(-[c-]3cccc3)c3ccccc3nc2c1 [7c, 1-(Acridin-9-yl)-1′-Vinylferrocene] | 22.8 ± 1.8% | 7.6 ± 1.1% | 14.1 ± 1.5% | 10.4 ± 0.8% | 86.9 ± 6.1% | 6.9 ± 0.3 µM |  | 2.9 ± 0.1 | 1.36 ± 0.01 | 
9 | C=C[c-]1cccc1.[Fe+2].c1ccc(-[c-]2cccc2)[nH+]c1 [7ap] |  |  |  |  |  |  | 2.60 ± 0.03 |  |  | 2.13 ± 0.03
10 | [Fe+2].c1cc[cH-]c1.c1ccc(-[c-]2cccc2)[nH+]c1 [1ap] |  |  |  |  |  |  | 2.10 ± 0.10 |  |  | 2.05 ± 0.02
11 | C=C(C)[c-]1cccc1.[Fe+2].c1ccc(-[c-]2cccc2)[nH+]c1 [5ap] |  |  |  |  |  |  | 2.20 ± 0.10 |  |  | 2.85 ± 1.3
